Structures are written as SMILES. In brackets after ≈: the same amount, converted by molar mass.

The subject of this experiment is Mycobacterium tuberculosis. Nature of the experiment: Antimycobacterial activity against isoniazid-resistant Mycobacterium tuberculosis by agar dilution method. In kind it is functional. A general note: Agar dilution tests growth on a series of plates holding different concentrations.
A word on the MIC90: it is the lowest concentration that inhibits either 90% of growth or 90% of the strains tested, depending on the study. `COc1cc2c(cc1OC)C(=O)[C@]1(C2)[C@@H](c2ccccc2)[C@@H]2CSCN2[C@@]12C(=O)Nc1ccc(OC(F)(F)F)cc12`: the MIC90 is more than 6.25 µM. In turn, `COc1cc2c(cc1OC)C(=O)[C@]1(C2)[C@@H](c2ccccc2Cl)[C@@H]2CSCN2[C@@]12C(=O)Nc1ccc(OC(F)(F)F)cc12` gave an MIC90 of 36.4 µM (≈ 22.5 µg/mL). In turn, `COc1cc2c(cc1OC)C(=O)[C@]1(C2)[C@@H](c2ccc(F)cc2)[C@@H]2CSCN2[C@@]12C(=O)N(N1CCOCC1)c1ccccc12` gave an MIC90 of 35.1 µM (≈ 21.1 µg/mL). Regarding `COc1ccc([C@H]2[C@@H]3CSCN3[C@@]3(C(=O)N(N4CCOCC4)c4ccccc43)[C@@]23Cc2cc(OC)c(OC)cc2C3=O)cc1OC`, the MIC90 turned out to be 24.2 µM (≈ 15.6 µg/mL). The result for `COc1cc2c(cc1OC)C(=O)[C@]1(C2)[C@@H](c2ccccc2)[C@@H]2CSCN2[C@@]12C(=O)N(N1CCOCC1)c1ccccc12` reads more than 6.25 µM; that for `COc1cc2c(cc1OC)C(=O)[C@]1(C2)[C@@H](c2ccccc2Cl)[C@@H]2CSCN2[C@@]12C(=O)N(N1CCOCC1)c1ccccc12`, 18.3 µM (≈ 11.3 µg/mL). Regarding `COc1cc2c(cc1OC)C(=O)[C@]1(C2)[C@@H](c2ccc(F)cc2)[C@@H]2CSCN2[C@@]12C(=O)Nc1ccc(OC(F)(F)F)cc12`, the MIC90 was 16.6 µM (≈ 9.99 µg/mL). As to `COc1ccc([C@H]2[C@@H]3CSCN3[C@@]3(C(=O)Nc4ccc(OC(F)(F)F)cc43)[C@@]23Cc2cc(OC)c(OC)cc2C3=O)cc1OC`, the MIC90 stood at 22.2 µM (≈ 14.3 µg/mL).

Consider `NNC(=O)c1ccncc1` [ISONIAZID], for which the MIC90 is 11.2 µM (≈ 1.54 µg/mL).

The record behind these values is ChEMBL document CHEMBL2203242, “A regio- and stereoselective 1,3-dipolar cycloaddition for the synthesis of new-fangled dispiropyrrolothiazoles as antimycobacterial agents” (Bioorg Med Chem Lett, 2012).
